Reference: patent US5597823A, “Tricyclic substituted hexahydrobenz [e]isoindole alpha-1 adrenergic antagonists” (priority 1995, dated 1997)
Counter-ions that a name gives are not always drawn. One block for each molecule: values may come before it.

Assays:
Assay type in all cases: cell-based
[1] = target: T1, α-1A adrenoceptor (dog prostate) (Canis lupus, UniProt A0A8I3NK63); experiment: Functional antagonism: phenylephrine (PE)-induced contraction of canine prostate strips; conditions: vs phenylephrine, Schild plot
T1 sequence (A0A8I3NK63 1-466): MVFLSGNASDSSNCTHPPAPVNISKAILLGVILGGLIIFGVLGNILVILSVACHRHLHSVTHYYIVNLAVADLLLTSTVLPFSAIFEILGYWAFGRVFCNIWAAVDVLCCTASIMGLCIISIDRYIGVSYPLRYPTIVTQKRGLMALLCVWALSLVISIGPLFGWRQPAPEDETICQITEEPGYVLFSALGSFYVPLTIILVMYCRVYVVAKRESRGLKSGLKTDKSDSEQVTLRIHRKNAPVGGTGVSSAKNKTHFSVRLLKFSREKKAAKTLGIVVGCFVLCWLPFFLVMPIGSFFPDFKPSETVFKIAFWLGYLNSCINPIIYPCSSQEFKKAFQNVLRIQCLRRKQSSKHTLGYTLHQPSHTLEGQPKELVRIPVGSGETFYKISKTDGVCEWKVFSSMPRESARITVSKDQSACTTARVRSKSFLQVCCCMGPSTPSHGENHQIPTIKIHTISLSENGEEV
Source text: (§1) Functional assays indicative of pharmacologically defined α-1 adrenoceptors were used to further characterize compounds. Inhibition of phenylephrine (PE)-induced contraction of canine prostate smooth muscle can be correlated with α-1A adrenoceptor activation. […] For each of these models, agonist dose response curves were repeated against increasing concentrations of test agent to derive a Schild plot [log ([…]) against log (molarity of test agent)] to determine the pA2.
Canine prostate strips were used in vitro as previously described (Hieble, J. P., Boyce, A. J. and Caine, M., Fed. Proc., 45:2609-2614 (1986)), to determine antagonist potencies against phenylephrine-induced contractions.

[2] = target: T2, α-1B adrenoceptor (rat spleen) (Rattus norvegicus, UniProt P15823); experiment: Functional antagonism: phenylephrine (PE)-induced contraction of rat spleen; conditions: for Kb: vs phenylephrine, Schild plot, read-out: pA2 Rat Spleen [α-1B] (converted)
T2 construct: PE-induced contraction of rat spleen; from tissue; host or cells: rat spleen
T2 sequence (P15823 1-515): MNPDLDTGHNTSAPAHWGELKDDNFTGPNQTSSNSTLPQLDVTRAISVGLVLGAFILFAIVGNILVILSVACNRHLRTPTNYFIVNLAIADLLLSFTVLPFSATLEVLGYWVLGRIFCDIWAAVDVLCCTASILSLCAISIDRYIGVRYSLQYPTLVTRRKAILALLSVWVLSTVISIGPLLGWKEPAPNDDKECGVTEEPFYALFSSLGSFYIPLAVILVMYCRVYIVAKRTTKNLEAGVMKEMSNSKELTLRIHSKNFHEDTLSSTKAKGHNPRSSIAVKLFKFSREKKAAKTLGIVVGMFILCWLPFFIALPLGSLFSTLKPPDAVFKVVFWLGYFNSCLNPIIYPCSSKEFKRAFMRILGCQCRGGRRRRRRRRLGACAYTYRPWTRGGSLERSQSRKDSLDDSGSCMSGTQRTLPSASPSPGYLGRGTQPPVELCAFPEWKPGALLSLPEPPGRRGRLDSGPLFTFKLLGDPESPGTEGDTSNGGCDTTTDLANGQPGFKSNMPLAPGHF
Source text: as §1

[3] = target: T3, α-1A adrenoceptor (rat vas deferens) (Rattus norvegicus, UniProt P43140); experiment: Functional antagonism: phenylephrine (PE)-induced contraction of rat vas deferens; conditions: vs phenylephrine; Schild plot; read-out: pA2 Rat Vas Deferens [α-1A] (converted)
T3 construct: PE-induced contraction of rat vas deferens; from tissue; host or cells: rat vas deferens
T3 sequence (P43140 1-466): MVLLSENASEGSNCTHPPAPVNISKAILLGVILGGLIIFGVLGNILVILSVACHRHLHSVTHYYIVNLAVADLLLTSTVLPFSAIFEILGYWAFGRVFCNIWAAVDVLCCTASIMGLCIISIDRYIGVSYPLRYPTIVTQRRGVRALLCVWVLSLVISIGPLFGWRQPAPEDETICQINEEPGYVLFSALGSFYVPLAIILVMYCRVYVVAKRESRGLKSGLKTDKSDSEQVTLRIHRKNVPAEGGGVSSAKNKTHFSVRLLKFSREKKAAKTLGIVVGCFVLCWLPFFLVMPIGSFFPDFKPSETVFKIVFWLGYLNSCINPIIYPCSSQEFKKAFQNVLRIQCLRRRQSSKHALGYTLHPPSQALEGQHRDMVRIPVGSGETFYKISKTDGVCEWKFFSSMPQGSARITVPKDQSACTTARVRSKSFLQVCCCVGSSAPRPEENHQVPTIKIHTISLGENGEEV
Source text: as §1

pA2 Dog Prostate [α-1A] ([1]; Table 2a): 8.54
Kb [2]: 56.2 nM
Kb [3]: 10.5 nM
Structure (SMILES): COc1cccc2c1[C@@H]1CN(CCn3c(=O)[nH]c4c(sc5ccccc54)c3=O)C[C@@H]1CC2 [Example 16, hydrochloride]

pA2 Dog Prostate [α-1A] ([1]; Table 2a): 8.57
Kb [2]: 51.3 nM
Kb [3]: 2.82 nM
Structure (SMILES): COc1cccc2c1CC[C@H]1CN(CCn3c(=O)c4sc5ccccc5c4n(C)c3=O)C[C@@H]21 (relative stereo) [Example 11, hydrochloride]

pA2 Dog Prostate [α-1A] ([1]; Table 2a): 8.74
Kb [2]: 21.4 nM
Kb [3]: 4.27 nM
Structure (SMILES): COc1cccc2c1CC[C@H]1CN(CCn3c(=O)[nH]c4c(sc5ccccc54)c3=O)C[C@@H]21 (relative stereo) [Example 1, hydrochloride]

pA2 Dog Prostate [α-1A] ([1]; Table 2b): 7.46
Structure (SMILES): COc1cccc2c1CC[C@H]1CN(CCn3c(=O)[nH]c4c(sc5cc(C(F)(F)F)ccc54)c3=O)C[C@@H]21 [Example 32, 3-[2-((3aR,9bR)-cis76-Methoxy-2,3,3a,4,5,9b-hexahydro-[1-benz[e]isoindol-1-yl)ethyl]-7-trifluoromethyl[1]benzothieno[23-d]pyrimidine-2,4(1H,3H)-dione hydrochloride]

pA2 Dog Prostate [α-1A] ([1]; Table 2b): 7.68
Structure (SMILES): COc1cccc2c1CC[C@H]1CN(CCn3c(=O)[nH]c4sc5ccccc5c4c3=O)C[C@@H]21 (relative stereo) [Example 13, 3-[2-(cis-6-Methoxy-2,3,3a,4,5,9b-hexahydro-[1H]-benz[e]isoindol-1-yl)ethyl]-[1]benzothieno[2,3-d]pyrimidine-2,4(1H,3H)-dione hydrochloride]

pA2 Dog Prostate [α-1A] ([1]; Table 2b): 9.09
Structure (SMILES): COc1cccc2c1CC[C@H]1CN(CCn3c(=O)[nH]c4c(oc5cccnc54)c3=O)C[C@@H]21 [Example 77, 3-[2-((3aR,9bR)-cis-6-Methoxy-2,3,3a,4,5,9b-hexahydro-[1H]-benz[e]yl)ethyl]-pyrido[2',3':4,5]furo[3,2-d]pyrimidine-2,4(1H3 H)-dione hydrochloride]

pA2 Dog Prostate [α-1A] ([1]; Table 2b): 8.77
Structure (SMILES): COc1cccc2c1[C@@H]1CN(CCCCn3c(=O)[nH]c4c(sc5cccnc54)c3=O)C[C@@H]1CC2 [Example 79, dihydrochloride]

pA2 Dog Prostate [α-1A] ([1]; Table 2b): 9.15
Structure (SMILES): COc1cccc2c1CC[C@H]1CN(CCn3cnc4c(sc5ncccc54)c3=O)C[C@@H]21 [Example 34, 3-[2-((3aR,9bR)-cis-6-Methoxy-2,3,3a,4,5,9b-hexahydro-[1H]-benz[e]isoindol-1-yl)ethyl]-pyrido[3',2':4,51thieno[3,2:d]pyrimidine-4(3H)-one dihydrochloride]

pA2 Dog Prostate [α-1A] ([1]; Table 2b): 8.42
Structure (SMILES): COc1cccc2c1CC[C@H]1CN(CCn3c(=O)[nH]c4c(sc5cccc(OC)c54)c3=O)C[C@@H]21 [Example 73, 3-[2-((3aR,9bR)-cis-6-Methoxy-2,3,3a,4,5,9b-hexahydro-[1H]-benz[e]isoindol-1-yl)ethyl]-[1]-9-methoxy-benzothieno[3,2-d]pyrimidine-2,4(1H,3H)-dione hydrochloride]

The remaining lines, values behind:

Structure (SMILES): COc1cccc2c1CC[C@H]1CN(CCn3c(=O)[nH]c4c(sc5ccc(C(=O)N6CCOCC6)cc54)c3=O)C[C@@H]21 [Example 58, hydrochloride]
pA2 Dog Prostate [α-1A] ([1]; Table 2a): 9.09
Kb [2]: 36.3 nM
Kb [3]: 4.37 nM

Structure (SMILES): COc1cccc2c1CC[C@H]1CN(CCn3c(=O)[nH]c4c([nH]c5ccccc54)c3=O)C[C@@H]21 [Example 26, 3-[2-((3aR,9bR)-cis-6-Methoxy-2,3,3a,4,5,9b-hexahydro-[1 H]-benz[e]isoindol-1-yl)ethyl]-1H-pyrimido[5.4-b]indole-2,4(1H,3H)-dione hydrochloride]
pA2 Dog Prostate [α-1A] ([1]; Table 2a): 8.63
Kb [2]: 7.41 nM
Kb [3]: 2.75 nM

Structure (SMILES): COc1cccc2c1CC[C@H]1CN(CCn3c(=O)[nH]c4c(sc5ccc(C#N)nc54)c3=O)C[C@@H]21 [Example 108, dihydrochloride]
pA2 Dog Prostate [α-1A] ([1]; Table 2a): 9.03
Kb [2]: 11.2 nM
Kb [3]: 3.39 nM

Structure (SMILES): COc1cccc2c1CC[C@H]1CN(CCn3c(=O)[nH]c4c(sc5ccc(O)nc54)c3=O)C[C@@H]21 [Example 107, dihydrochloride]
pA2 Dog Prostate [α-1A] ([1]; Table 2a): 9.22
Kb [2]: 37.2 nM
Kb [3]: 20 nM

Structure (SMILES): COc1cc2nc(N3CCN(C(=O)C4COc5ccccc5O4)CC3)nc(N)c2cc1OC (centres unmarked) [doxazosin, reference compound]
more potent effect on spleen smooth muscle ([2]; PE-induced contraction, pA2 models compared): more potent effect on spleen smooth muscle by approximately an order of magnitude

Structure (SMILES): COc1cccc2c1CC[C@H]1CN(CCn3c(=O)[nH]c4c(sc5ccc(Cl)cc54)c3=O)C[C@@H]21 [Example 67, hydrochloride]
pA2 Dog Prostate [α-1A] ([1]; Table 2b): 8.98

Structure (SMILES): COc1cccc2c1CC[C@H]1CN(CCn3c(=O)[nH]c4c(sc5cc(Cl)ccc54)c3=O)C[C@@H]21 [Example 57, 3-[2-((3aR,9bR)-cis-6-Methoxy-2,3,3a,4,5,9b-hexahydro-[1H]-benz[e]isoindol-1-yl)ethyl]-[1]-7-chloro-benzothieno[3,2-d]pyrimidine-2,4(1H,3H)-dione hydrochloride]
pA2 Dog Prostate [α-1A] ([1]; Table 2b): 7.43

Structure (SMILES): COCCn1c(=O)n(CCN2C[C@@H]3CCc4c(OC)cccc4[C@@H]3C2)c(=O)c2sc3nccnc3c21 [Example 104, 3-[2-(cis-(3aR,9bR)-6-Methoxy-2,3,3a,4,5,9b-hexahydro-[1H]-benz[e]isoindol-1-yl)ethyl]-1-(2-methoxyethyl)pyrazino[2',3':4,5]thieno[3,2-d]pyrimidine-2,4(1H,3H)-dione hydrochloride]
pA2 Dog Prostate [α-1A] ([1]; Table 2b): 9.74

Structure (SMILES): COc1cccc2c1[C@@H]1CN(CCCCn3c(=O)[nH]c4c(sc5nccnc54)c3=O)C[C@@H]1CC2 [Example 80, hydrochloride]
pA2 Dog Prostate [α-1A] ([1]; Table 2b): 8.08

Structure (SMILES): COc1cccc2c1CC[C@H]1CN(CCn3c(=O)c4sc5nccnc5c4n(Cc4ccccc4)c3=O)C[C@@H]21 [Example 96, hydrochloride]
pA2 Dog Prostate [α-1A] ([1]; Table 2b): 7.46

Structure (SMILES): COc1cccc2c1CC[C@H]1CN(CCn3cnc4c(sc5ccccc54)c3=O)C[C@@H]21 (relative stereo) [Example 28, dihydrochloride]
pA2 Dog Prostate [α-1A] ([1]; Table 2b): 7.75

Structure (SMILES): COc1cccc2c1CC[C@H]1CN(CCn3c(=O)[nH]c4c(sc5cccc(Cl)c54)c3=O)C[C@@H]21 [Example 72, 3-[2-((3aR,9bR)-cis-6-Methoxy-2,3,3a,4,5,9b-hexahydro-[1H]-benz[e]isoindol-1-yl)ethyl]-[1]-9-chloro-benzothieno[3,2-d]pyrimidine-2,4(1H,3H)-dione hydrochloride]
pA2 Dog Prostate [α-1A] ([1]; Table 2b): 8.38

Structure (SMILES): COc1cccc2c1CC[C@H]1CN(CCn3c(=O)[nH]c4c(sc5ccc(NC(C)=O)cc54)c3=O)C[C@@H]21 [Example 49, 3-[2-((3aR,9bR)-cis-6-Methoxy-2,3,3a,4,5,9b-hexahydro-[1H]-benz[e]isoindol-1-yl)ethyl]-[1]-8-acetamido-benzothieno[3,2-d]pyrimidine-2,4(1H,3H)-dione hydrochloride]
pA2 Dog Prostate [α-1A] ([1]; Table 2b): 7.84

Structure (SMILES): COc1cccc2c1[C@@H]1CN(CCCCn3c(=O)[nH]c4c(sc5ccccc54)c3=O)C[C@@H]1CC2 (relative stereo) [Example 15, 3-[4-(cis-9-Methoxy-2,3,3a,4,5,9b-hexahydro-1H]-benz[e]isoindol-1-yl)butyl]-[1]benzothieno[3,2-d]pyrimidine-2,4(1H,3H)-dione hydrochloride]
pA2 Dog Prostate [α-1A] ([1]; Table 2b): 7.34

Structure (SMILES): COc1cccc2c1CC[C@H]1CN(CCn3c(=O)[nH]c4c5c(sc4c3=O)CCCC5)C[C@@H]21 (relative stereo) [Example 22, hydrochloride]
pA2 Dog Prostate [α-1A] ([1]; Table 2b): 8.32
